Read-outs that look alike come from different tables or passages of the source. Where only a bound is given, the exact number is not on record here.

The test system of assay [1] is CD8+ T cells. Kind of assay: Ex vivo IFN-γ ELISPOT, CD8+ T cells with peptide-pulsed autologous DCs. Format: cell-based, human. The settings on record: donor 443 (LTBI), linear regression.
Assay [2] concerns CD8+ T cells. As to conditions: donor 160; ex vivo, autologous DCs pulsed with epitope; clones published previously ref 17; cited from earlier work. From the text:
Table 3 Summary of CD8+ T Cell Epitopes Identified | column: Epitope-Specific T Cells^a

With ELPQWLSANR, the “Epitope-Specific T Cells” value with CD8+ T cells [1] is <10 IFN-γ spot forming units per 2.
RADEEQQQAL: the “Epitope-Specific T Cells” value with CD8+ T cells [2] was 120 IFN-γ spot forming units per 2.

The values above are taken from publication PMC2323292, “Immunodominant Tuberculosis CD8 Antigens Preferentially Restricted by HLA-B” (PLoS Pathogens, 2007).
